As a reminder, the EC50 is the midpoint of the concentration-response curve.

Assay [1] has as its target T1, human cloned CHRM4 receptor (Homo sapiens, UniProt P08173).
T1 construct: expressed in transfected cells; host or cells: CHO-K1 (M4_CHO)
T1 sequence (P08173 1-479): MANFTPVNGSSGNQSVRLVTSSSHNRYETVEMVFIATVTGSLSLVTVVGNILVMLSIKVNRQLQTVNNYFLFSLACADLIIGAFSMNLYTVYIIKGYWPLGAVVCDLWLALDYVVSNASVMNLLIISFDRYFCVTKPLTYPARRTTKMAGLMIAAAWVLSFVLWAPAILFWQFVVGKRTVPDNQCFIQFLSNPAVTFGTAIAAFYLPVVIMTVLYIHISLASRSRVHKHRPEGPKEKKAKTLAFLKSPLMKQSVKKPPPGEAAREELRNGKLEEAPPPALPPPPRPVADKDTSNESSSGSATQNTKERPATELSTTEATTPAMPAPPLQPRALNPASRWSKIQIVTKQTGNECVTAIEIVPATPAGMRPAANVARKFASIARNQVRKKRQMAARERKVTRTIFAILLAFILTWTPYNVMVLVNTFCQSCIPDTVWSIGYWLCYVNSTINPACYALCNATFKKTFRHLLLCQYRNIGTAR
Put plainly: CHRM4 Ca++ Flux Assay (M4_CHO cells, agonist mode). The format is cell-based. The following applies: for Emax / M4 FDSS PA %: Percent Activity (PA); for Emax: read-out: M4 FDSS PA %; for EC50: geometric mean if tested more than once, read-out: M4 FDSS EC50. How it is done: (§1) The above examples were characterized by measuring the intracellular mobilization of Ca^++ ions caused by signaling events mediated by the receptor. The Intra-cellular Calcium flux levels were captured by the highly sensitive Ca^++ indicator, Calcium Assay Kit (BD Biosciences; Catalog Number 640178. The fluorescent activity from all receptors were monitored by the fluorescent imager, FDSS 7000EX (Hamamatsu) over a span of 3 minutes. The change in Calcium flux was readily captured upon activation with the muscarinic orthosteric agonist, Carbachol.
CHO-K1 cells stably expressing the human cloned CHRM4 receptor (M4_CHO cells) were grown and maintained in a monolayer culture with F12/HAM (Life Technologies) supplemented with 10% Fetal Bovine Serum, 1X Pen-Strep, and 0.4 mg/mL Geneticin in a humidified atmosphere (5% CO2) at 37° C. The cultures were grown to 80-90% confluency in T150 flasks (Corning) and washed with 1×DPBS then lifted with 0.05% Trypsin (Life Technologies). The cells were harvested in growth media then spun (1K rpm, 3 minutes) and cryopreserved using Recovery Cell Culture Freezing Media (Gibco Technologies). Cells were stored in liquid nitrogen and thawed a day before the assay.
Prior to the day of the assay, stable M4_CHO cells were thawed and plated on 384 well black walled clear bottom TC treated plates (Greiner Cat #781091) at 12K cells/well using F12/HAM Media supplemented with 10% FBS (Life Technologies) and kept overnight in a humidified atmosphere (5% CO2) at 37° C. The next day, cells were loaded with 20 μL Ca^++ dye (BD Biosciences) using Loading Buffer (HBSS +Ca/+Mg, 20 mM HEPES, 2.5 mM Probenecid) and placed back in cell incubator for a minimum of 1 hour. After incubation, the dye was replaced with 45 μL Assay Buffer (HBSS −Ca/−Mg, 20 mM HEPES, 2.5 mM Probenecid) supplemented with 20 μM ATP (Sigma Aldrich) and kept at room temperature in the dark for 60 minutes before running on a cell imager. The FDSS 7000EX (Hamamatsu) was used to capture Ca^++ traces for a span of 3 minutes from cells treated with 11 point dose of compound in triplicate in order to generate dose response curves in agonist mode. All compounds were serially diluted in DMSO then prepared in Assay Buffer for Ca^++ flux studies. The dose response curves were generated from the average of triplicate wells obtained from each data point and used a non-linear regression of four parameter dose response algorithm. The Percent Activity (PA) was measured to EC100 of Carbachol.
(§2) If an Example was tested more than once in an assay, then the values below represent the geometric mean of the results from each independent experiment.

The target of assay [2] is T2, human cloned CHRM3 receptor (Homo sapiens, UniProt P20309).
T2 construct: expressed in transfected cells; host or cells: CHO-K1 (M3_CHO)
T2 sequence (P20309 whole entry): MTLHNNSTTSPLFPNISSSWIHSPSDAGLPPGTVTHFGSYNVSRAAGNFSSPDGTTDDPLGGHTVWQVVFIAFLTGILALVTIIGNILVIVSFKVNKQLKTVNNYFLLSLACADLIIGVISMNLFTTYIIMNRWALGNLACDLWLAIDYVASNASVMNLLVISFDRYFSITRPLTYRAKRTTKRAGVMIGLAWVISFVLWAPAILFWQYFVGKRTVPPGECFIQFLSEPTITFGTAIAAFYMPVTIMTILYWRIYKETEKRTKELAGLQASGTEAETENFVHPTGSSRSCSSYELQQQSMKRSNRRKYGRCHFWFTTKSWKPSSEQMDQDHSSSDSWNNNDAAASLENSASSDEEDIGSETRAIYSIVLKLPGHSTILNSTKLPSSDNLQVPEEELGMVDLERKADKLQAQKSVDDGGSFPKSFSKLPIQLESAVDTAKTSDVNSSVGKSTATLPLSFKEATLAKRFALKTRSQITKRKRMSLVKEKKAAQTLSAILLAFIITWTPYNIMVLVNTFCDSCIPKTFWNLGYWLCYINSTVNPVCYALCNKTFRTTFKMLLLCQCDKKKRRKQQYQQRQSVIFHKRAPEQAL
Kind of assay: CHRM3 Ca++ Flux Assay (M3_CHO cells, agonist mode). The assay is classed as cell-based. As to conditions: for Emax / M3 FDSS PA %: Percent Activity (PA) measured to EC100 of Carbachol; for Emax: read-out: M3 FDSS PA %; for EC50: agonist mode, geometric mean if tested more than once, read-out: M3 FDSS EC50. On the procedure: as §1
CHO-K1 cells stably expressing the human cloned CHRM3 receptor (M3_CHO cells) were grown and maintained in a monolayer culture with F12/HAM (Life Technologies) supplemented with 10% Fetal Bovine Serum, IX Pen-Strep, and 0.4 mg/mL Geneticin in a humidified atmosphere (5% CO2) at 37° C. The cultures were grown to 80-90% confluency in T150 flasks (Corning) and washed with 1×DPBS and lifted with 0.05% Trypsin (Life Technologies). The cells were then spun (1K rpm, 3 minutes) and frozen using Recovery Cell Culture Freezing Media (Gibco Technologies). Cells were stored in liquid nitrogen and thawed a day before the assay. A similar procedure was used for cells stably expressing the human cloned CHRM5 receptor (M5_CHO).
Prior to the day of the assay, stable M3_CHO or M5_CHO cells were thawed and plated on Greiner 384 well black TC treated plates at 12K cells/well in F12/DMEM supplemented with 10% FBS (Hyclone) and kept overnight in a humidified atmosphere (5% CO2) at 37° C. The next day, cells were loaded with Ca^++ dye (BD Biosciences) using Loading Buffer (HBSS +Ca/+Mg, 20 mM HEPES, 2.5 mM Probenecid) and placed back in cell incubator for a minimum of 1 hour. After incubation, the dye was replaced with Assay Buffer (HBSS −Ca/−Mg, 20 mM HEPES, 2.5 mM Probenecid) and kept at room temperature in the dark before running on cell imager. The FDSS 7000EX (Hamamatsu) was used to acquire Ca^+− traces from cells treated with 11 point dose response of compounds in triplicate in order to generate dose response curves in agonist mode. All compounds were serially diluted in DMSO then prepared in Assay Buffer for Ca^++ flux studies. The dose response curves were generated from the average of triplicate wells obtained from each data point and used a non-linear regression of four parameter dose response algorithm. The Percent Activity (PA) was measured to EC100 of Carbachol.
as §2

`Fc1ccc(OC[C@@H]2CCOC2)c(C2CCN([C@@H]3COC4(C3)CN(c3nnco3)C4)CC2)c1` [Example 1B, (S)-7-(4-(5-fluoro-2-(((R)-tetrahydrofuran-3-yl)methoxy)phenyl)piperidin-1-yl)-2-(1,3,4-oxadiazol-2-yl)-5-oxa-2-azaspiro[3.4]octane]: in assay [1], the Emax came to 84% and the EC50 came out at 10 nM. Besides, in assay [2], the Emax came to 0% and the EC50 was more than 25000 nM.

With `c1ccc(C2CCN([C@@H]3COC4(C3)CN(c3ncco3)C4)CC2)c(O[C@H]2CCOC2)c1` [Example 4H, (S)-2-(oxazol-2-yl)-7-(4-(2-(((S)-tetrahydrofuran-3-yl)oxy)phenyl)piperidin-1-yl)-5-oxa-2-azaspiro[3.4]octane], the Emax was determined as 69% in assay [1] and 0% in assay [2]. For the same molecule, the values for the EC50 in assay [1] and in assay [2] were 17 nM and more than 25000 nM, respectively.

For the molecule `Fc1ccc(OC[C@H]2CCO2)c(C2CCN([C@@H]3COC4(C3)CN(c3nncs3)C4)CC2)c1.O=C(O)C(F)(F)F` (single isomer, unassigned) [Example 2D, (S)-7-(4-(5-fluoro-2-(((R)-oxetan-2-yl)methoxy)phenyl)piperidin-1-yl)-2-(1,3,4-thiadiazol-2-yl)-5-oxa-2-azaspiro[3.4]octane trifluoroacetate or (S)-7-(4-(5-fluoro-2-(((S)-oxetan-2-yl)methoxy)phenyl)piperidin-1-yl)-2-(1,3,4-thiadiazol-2-yl)-5-oxa-2-azaspiro[3.4]octane trifluoroacetate], in assay [1], the “M4 FDSS PA %” value was 72% and the EC50 was found to be 20 nM. In addition, in assay [2], the “M3 FDSS PA %” value was 0% and the EC50 is more than 25000 nM.

Regarding `c1ccc(C2CCN([C@@H]3COC4(C3)CN(c3ncco3)C4)CC2)c(-c2cncnc2)c1` [Example 4R, (S)-2-(oxazol-2-yl)-7-(4-(2-(pyrimidin-5-yl)phenyl)piperidin-1-yl)-5-oxa-2-azaspiro[3.4]octane], in assay [1], the Emax was found to be 70% and the EC50 was 3 nM. In assay [2], the Emax was found to be 0% and the EC50 is more than 25000 nM.

In the case of `Fc1ccc(C2CCN([C@@H]3COC4(C3)CN(c3ncco3)C4)CC2)c(OC2COC2)c1` [Example 4S, (S)-7-(4-(4-fluoro-2-(oxetan-3-yloxy)phenyl)piperidin-1-yl)-2-(oxazol-2-yl)-5-oxa-2-azaspiro[3.4]octane], in assay [1], the Emax was determined as 74% and the EC50 is 21 nM. In addition, in assay [2], the Emax is 0% and the EC50 was more than 25000 nM.

Turning to `Fc1ccc(OC[C@H]2COCCO2)c(C2CCN([C@@H]3COC4(C3)CN(c3nnco3)C4)CC2)c1` [Example 1C], in assay [1], the Emax came to 78% and the half-maximal effective concentration (EC50) is 36 nM. In addition, in assay [2], the Emax turned out to be 0% and the EC50 was more than 25000 nM.

In the case of `CC(C)(O)CCOc1ccc(F)cc1C1CCN([C@@H]2COC3(C2)CN(c2nncs2)C3)CC1` [Example 5P, (S)-4-(2-(1-(2-(1,3,4-thiadiazol-2-yl)-5-oxa-2-azaspiro[3.4]octan-7-yl)piperidin-4-yl)-4-fluorophenoxy)-2-methylbutan-2-ol], in assay [1], the Emax is 58% and the EC50 worked out at 86 nM. In addition, in assay [2], the Emax was found to be 0% and the EC50 is more than 25000 nM.

Turning to `Fc1ccc(OC[C@H]2COCCO2)c(C2CCN([C@@H]3COC4(C3)CN(c3ncco3)C4)CC2)c1` [Example 4B, (S)-7-(4-(2-(((R)-1,4-dioxan-2-yl)methoxy)-5-fluorophenyl)piperidin-1-yl)-2-(oxazol-2-yl)-5-oxa-2-azaspiro[3.4]octane], the Emax worked out at 77% in assay [1] and 0% in assay [2]. Also, the EC50 is 4 nM in assay [1] and more than 25000 nM in assay [2].

`Fc1ccc(C2CCOCC2)c(C2CCN([C@@H]3COC4(C3)CN(c3ncco3)C4)CC2)c1` [Example 4W, (S)-7-(4-(5-fluoro-2-(tetrahydro-2H-pyran-4-yl)phenyl)piperidin-1-yl)-2-(oxazol-2-yl)-5-oxa-2-azaspiro[3.4]octane]: the Emax in assay [1] stood at 75%; in assay [2] it was 0%. The results for the half-maximal effective concentration (EC50) in assay [1] and in assay [2] were 21 nM and more than 25000 nM, respectively.

Turning to `COCCOc1ccc(F)cc1C1CCN([C@@H]2COC3(C2)CN(c2ncns2)C3)CC1` [Example 5D, (S)-7-(4-(5-fluoro-2-(2-methoxyethoxy)phenyl)piperidin-1-yl)-2-(1,2,4-thiadiazol-5-yl)-5-oxa-2-azaspiro[3.4]octane], in assay [1], the Emax is 46% and the EC50 was 128 nM. Besides, in assay [2], the Emax is 0% and the EC50 is more than 25000 nM.

Take `COc1ccccc1C1CCN([C@@H]2COC3(C2)CN(c2ncco2)C3)CC1` [Example 4N, (S)-7-(4-(2-methoxyphenyl)piperidin-1-yl)-2-(oxazol-2-yl)-5-oxa-2-azaspiro[3.4]octane]: in assay [1], the Emax worked out at 74% and the EC50 came to 93 nM. In assay [2], the Emax worked out at 0% and the EC50 is more than 25000 nM.

Take `c1ccc(C2CCN([C@@H]3COC4(C3)CN(c3nnco3)C4)CC2)c(C2CCOCC2)c1` [Example 3C, (S)-2-(1,3,4-oxadiazol-2-yl)-7-(4-(2-(tetrahydro-2H-pyran-4-yl)phenyl)piperidin-1-yl)-5-oxa-2-azaspiro[3.4]octane]: in assay [1], the Emax came out at 85% and the EC50 is 184 nM. Moreover, in assay [2], the Emax was found to be 0% and the EC50 was more than 25000 nM.

As to `CC1(C)C[C@@H](Oc2ccc(F)cc2C2CCN([C@@H]3COC4(C3)CN(c3nnco3)C4)CC2)CO1` (single isomer, unassigned) [Example 2O, (S)-7-(4-(2-(((R)-5,5-dimethyltetrahydrofuran-3-yl)oxy)-5-fluorophenyl)piperidin-1-yl)-2-(1,3,4-oxadiazol-2-yl)-5-oxa-2-azaspiro[3.4]octane or (S)-7-(4-(2-(((S)-5,5-dimethyltetrahydrofuran-3-yl)oxy)-5-fluorophenyl)piperidin-1-yl)-2-(1,3,4-oxadiazol-2-yl)-5-oxa-2-azaspiro[3.4]octane], in assay [1], the “M4 FDSS PA %” value was 86% and the EC50 was found to be 51 nM. Besides, in assay [2], the “M3 FDSS PA %” value was 0% and the EC50 is more than 25000 nM.

The values are drawn from patent US11485742B2, “2-azaspiro[3.4]octane derivatives as M4 agonists” (NOVARTIS AG, priority 2019, dated 2022).
